Experimental data published in US20100160262A1, “COMPOSITIONS AND METHODS FOR MODULATING SIRTUIN ACTIVITY” (priority 2008, published 2010).

Legend:
[1] = test system: HIV LTR luciferase (Tat/AcTat transactivation); test: Nuclear microinjection of synthetic Tat or AcTat with HIV LTR luciferase reporter into HeLa cells; format: cell-based; details: for basal HIV promoter activity / transcriptional activity of AcTat (transactivation of the HIV promoter): TSA 400 nM or nicotinamide 5 mM for four hours, siRNA 48 hours before microinjection
Experimental: Subconfluent MEFs (70%) were grown on Cellocate coverslips (Eppendorf, Westbury, N.Y.), and nuclear microinjections were performed at room temperature with an automated injection system (Eppendorf Micromanipulator 5171 together with Eppendorf Transjector 5246). Samples were prepared as a 20 μl injection mix containing the HIV LTR luciferase reporter or 5xUAS luciferase (each 100 ng/μl), RSV-Tat (10 ng/μl) or Ga14-VP16 (50 ng/μl), CMV-CyclinT1 (100 ng/μl), CMV-SIRT1 (100 or 300 ng/μl) together with CMV-GFP (50 ng/μl) in sterile water. Six hours after microinjection, cells were examined under a Nikon Eclipse TE300 inverted fluorescent microscope to determine the number of GFP-positive cells, washed in cold phosphate buffer, and stored at −70° C. for luciferase assays (Promega). In HeLa cells, synthetic Tat or AcTat proteins (each 30 or 100 ng/μl) were co-injected with the wildtype or mutant HIV LTR luciferase reporters (each 100 ng/μl) together with CMV-GFP (50 ng/μl) and harvested four hours after injection. Cells were treated immediately after injection with 5,6-dichlorobenzimidazole riboside (DRB; 10 or 50 μM; Sigma), TSA (400 nM), or nicotinamide (5 mM). Microinjections in siRNA-treated cells were performed 48 hours after siRNA transfection.

[2] = test system: RSV LTR; test: RSV luciferase control reporter in transfected HeLa cells; format: cell-based, Rous sarcoma virus; details: 1 μM
Experimental: (§1) In co-transfection experiments, human CMV-SIRT1 or CMV-SIRT1H363Y (600 ng) was co-transfected into HeLa cells plated in six-well plates with the HIV LTR luciferase reporter (200 ng) or the LTRΔNF-kB-luciferase reporter (200 ng) and increasing amounts of RSV-Tat (0 ng, 2 ng, 20 ng, and 200 ng) using the lipofectamine reagents (Invitrogen). In the control experiment, RSV-Tat was replaced by RSV luciferase (200 ng), and the HIV LTR luciferase construct was replaced by the HIV LTR CAT reporter. […] The RSV-luciferase construct was used as described above. […] Cells were harvested 8 hr later and processed for luciferase assays.

[3] = test system: HIVNL4-3 containing the GFP open reading frame in place of nef; test: Single-cycle HIV infection of Jurkat T cells, GFP expression by flow cytometry; format: cell-based; details: 1 μM, 36 hours after overnight infection
Experimental: (§2) The HIV molecular clone (HIV-R7/E^−/GFP) containing the GFP open reading frame in place of the nef gene and a frameshift mutation in the env gene as well as the method to generate pseudotyped viral particles with VSV-G was previously described. Jordan et al. (2003) Embo J 22: 1868-1877. The number of infective particles per ml was established by infecting 3×10^5 Jurkat cells with different amounts of viral suspension. The titer of the viral stock was measured by flow cytometry analysis of GFP expression 48 hours after infection. The pHR′-EF-1α/GFP construct is a minimal nonreplicative HIV-1 genome containing a heterologous promoter (EF-1α) driving GFP expression. Naldini et al. (1996) Science 272: 263-267. […]. Zufferey et al. (1997) Nat Biotechnol 15: 871-875. All vectors for the production of HIV-based lentiviral vectors were provided by D. Trono, University of Geneva, Switzerland. Jurkat T cells were incubated overnight with HIV-R7/E^−/GFP or pHR′-EF-1α/GFP viral particles at a theoretical multiplicity of infection (m.o.i.) of 0.5 in 24-well plates. […] Viral infection was monitored 36 hours later by flow cytometry analysis using a Calibur FACScan (Becton Dickinson).

[4] = test system: EF-1α promoter GFP expression; test: HIV-based lentiviral vector with EF-1α promoter driving GFP in Jurkat T cells; format: cell-based; details: 1 μM, 36 hours
Experimental: as §2

[5] = test system: Tat-dependent HIV transcription (HIV LTR luciferase); test: Tat transactivation of HIV LTR luciferase reporter in transfected HeLa cells; format: cell-based; details: ~1 μM, 8 hours
Experimental: as §1

[6] = test system: p53; test: p53 acetylation; format: cell-based; details: 1 μM
[7] = biological target: T1, SIRT1 (Homo sapiens, UniProt Q96EB6); test: In vitro Tat deacetylation assay with immunoprecipitated SIRT1; format: biochemical; details: immunoprecipitated SIRT1, AcTat, NAD+; western blot α-AcTat; nicotinamide 5 mM, TSA 400 nM
T1 construct: made in house; host or cells: 293 cells (HEK 293), transient transfection, anti-FLAG M2 agarose immunoprecipitate
T1 sequence (Q96EB6 1-747): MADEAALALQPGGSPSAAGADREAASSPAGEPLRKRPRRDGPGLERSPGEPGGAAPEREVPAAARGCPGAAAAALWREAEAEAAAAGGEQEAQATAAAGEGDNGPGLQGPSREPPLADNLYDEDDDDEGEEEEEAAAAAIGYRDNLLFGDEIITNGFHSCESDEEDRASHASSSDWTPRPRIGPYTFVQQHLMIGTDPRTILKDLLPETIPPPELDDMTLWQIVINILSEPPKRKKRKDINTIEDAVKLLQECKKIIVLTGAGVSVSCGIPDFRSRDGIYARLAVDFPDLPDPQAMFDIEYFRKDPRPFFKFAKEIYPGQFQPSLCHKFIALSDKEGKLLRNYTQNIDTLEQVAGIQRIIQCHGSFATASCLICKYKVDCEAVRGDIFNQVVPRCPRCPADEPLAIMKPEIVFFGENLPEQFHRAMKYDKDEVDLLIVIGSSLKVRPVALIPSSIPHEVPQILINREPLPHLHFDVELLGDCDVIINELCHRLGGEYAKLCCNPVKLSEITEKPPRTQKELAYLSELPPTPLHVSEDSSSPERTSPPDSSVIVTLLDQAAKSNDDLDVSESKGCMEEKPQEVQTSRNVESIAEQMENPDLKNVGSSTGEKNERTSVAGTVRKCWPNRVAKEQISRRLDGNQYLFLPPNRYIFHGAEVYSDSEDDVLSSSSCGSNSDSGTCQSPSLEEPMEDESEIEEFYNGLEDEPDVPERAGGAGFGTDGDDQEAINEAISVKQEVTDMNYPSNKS
Experimental: Human SIRT1-7 FLAG-tagged plasmids were transfected in 293 cells with lipofectamine reagent (Invitrogen). Cells were lysed 24 hours after transfection with lysis buffer (50 mM Tris-Hcl, pH 7.5, 0.5 mM EDTA, 0.5% NP40, 150 mM NaCl) in the presence of protease inhibitors (Roche Molecular Biochemicals, Indianapolis, Ind.). Equal amounts of total proteins were immunoprecipitated with α-FLAG (anti-FLAG antibody) coupled to M2 agarose beads (Sigma, St Louis, Mo.), for 2 hours at 4° C. Immunoprecipitated material was washed twice with immunoprecipitation (IP) buffer and one time with SIRT deacetylation buffer (50 mM Tris-HCl pH 9, 4 mM MgCl2, 0.2 mM DTT). The beads were resuspended in 100 μl SIRT deacetylation buffer containing 1 μg synthetic Tat (72 amino acids) carrying an N-terminal biotin label and an acetyl group at position 50. Kaehlcke et al. (2003), supra. Reactions containing TSA (400 nM, WACO Bioproducts, Richmond, Va.) or nicotinamide (5 mM, Sigma) were preincubated for 10 min at room temperature. […] Reactions were stopped by the addition of SDS loading buffer, boiled, and after brief centrifugation, analyzed by western blotting with rabbit α-AcTat antibodies (Kaehlcke et al. (2003), supra) or horseradish peroxidase-conjugated streptavidin (Jackson Immunoresearch Laboratories, West Grove, Pa.). SIRT1-7 proteins were detected with polyclonal α-FLAG antibodies (Sigma).

Row | SMILES | basal HIV promoter activity [1] | transcriptional activity of AcTat (transactivation of the HIV promoter) [1] | SIRT1-mediated deacetylation of Tat [7] | other results
1 | OC[C@H]1O[C@@H](n2cnc3cc(Cl)c(Cl)cc32)[C@H](O)[C@@H]1O [DRB, 5,6-dichlorobenzimidazole riboside] | – | – | – | transactivation by both Tat proteins (Tat and AcTat) ([1]; DRB 10 or 50 μM, four hours): inhibited in a dose-dependent manner
2 | O=C1Oc2ccc3cc(Br)ccc3c2CC1c1ccccc1 (stereo not drawn) [HR73] | – | – | – | activity of the RSV LTR [2]: did not suppress; reduction of HIV gene expression as measured by GFP expression [3]: 5 fold; GFP expression from the EF-1α promoter [4]: not affected; suppression of Tat-dependent HIV transcription [5]: 3 fold; acetylation of p53 [6]: induced hyperacetylation
3 | CC(/C=C/C(=O)NO)=C\[C@@H](C)C(=O)c1ccc(N(C)C)cc1 [TSA] | enhanced | enhanced | no effect | –
4 | NC(=O)c1cccnc1 [nicotinamide] | stimulating | blocked | completely inhibited | –
